Test results: PubChem BioAssay (NCI)
Several values for one entry are separate records, joined by “and”; a condition that tells them apart may be missing. Identical values can stand only once.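 Cells were grown in 96-well plates and exposed to each compound for 48 hours at five concentrations; endpoints were interpolated linearly between bracketing concentrations, or set to the highest concentration if not reached. Abbreviation: GI50, concentration required for 50% inhibition of growth. TGI marks complete inhibition of growth.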

Assays:
Test in all cases: DTP human tumour cell line panel, 48 h
EKVX NSCLC = system: EKVX NSCLC
SF-539 CNS = system: SF-539 CNS
OVCAR-4 ovarian = system: OVCAR-4 ovarian
UO-31 renal = system: UO-31 renal
NCI-H460 lung = system: NCI-H460 lung
DLD-1 colon = system: DLD-1 colon
DMS 273 small cell lung = system: DMS 273 small cell lung
RPMI-8226 leukemia = system: RPMI-8226 leukemia
HCC-2998 colon = system: HCC-2998 colon
SK-OV-3 ovarian = system: SK-OV-3 ovarian

Structure (SMILES) | TGI (EKVX NSCLC) | TGI (SF-539 CNS) | TGI (OVCAR-4 ovarian) | TGI (UO-31 renal) | TGI (NCI-H460 lung) | TGI (DLD-1 colon) | TGI (DMS 273 small cell lung) | TGI (RPMI-8226 leukemia) | TGI (HCC-2998 colon) | TGI (SK-OV-3 ovarian) | GI50 (EKVX NSCLC) | GI50 (SF-539 CNS) | GI50 (OVCAR-4 ovarian) | GI50 (NCI-H460 lung) | GI50 (DLD-1 colon) | GI50 (DMS 273 small cell lung) | GI50 (RPMI-8226 leukemia) | GI50 (HCC-2998 colon) | GI50 (SK-OV-3 ovarian)
Cc1ccc(NC(=O)CCC(=O)C(C#N)c2ccccc2)cc1C (stereo not given) | > 100 µM | > 100 µM | > 100 µM | > 100 µM | > 100 µM | > 100 µM | > 100 µM | > 100 µM | > 100 µM | > 100 µM | – | – | – | – | – | – | – | – | –
C[n+]1c(N)n(C(=O)OCc2ccccc2)c(=O)c2c1ncn2C(=O)OCc1ccccc1 | > 100 µM | – | > 100 µM | 62.9 µM | > 100 µM | > 100 µM | > 100 µM | > 100 µM | > 100 µM | > 100 µM | – | – | – | – | – | – | – | – | –
NCP(=O)(O)OCC(=O)O | > 100 µM | > 100 µM | > 100 µM | > 100 µM | > 100 µM | > 100 µM | > 100 µM | – | – | > 100 µM | – | – | – | – | – | – | – | – | –
COc1ccc2c(c1)OCCC1=C2SCC2(C)CCN=C12 (stereo not given) | – | > 100 µM | > 100 µM | – | > 100 µM | > 100 µM | > 100 µM | > 100 µM | – | > 100 µM | – | – | – | – | – | – | – | – | –
O=C(/C(=C/c1ccccc1)c1ccccc1)N1c2ccccc2CC1c1c[nH]c2ccccc12 (stereo not given) | > 100 µM | > 100 µM | > 100 µM | > 100 µM | > 100 µM | > 100 µM | > 100 µM | > 100 µM | > 100 µM | > 100 µM | – | – | – | – | – | – | – | – | –
COC(=O)Cc1nc2ccccc2o1 | > 100 µM | > 100 µM | > 100 µM | > 100 µM | > 100 µM | > 100 µM | > 100 µM | > 100 µM | > 100 µM | > 100 µM | – | – | – | – | – | – | – | – | –
CN(C)CC1CCCC/C1=N/OC(=O)c1ccc(Cl)c(Cl)c1 (stereo not given) | > 100 µM | > 100 µM | > 100 µM | > 100 µM | > 100 µM | > 100 µM | > 100 µM | > 100 µM | > 100 µM | > 100 µM | – | – | – | – | – | – | – | – | –
CCOC(=O)/N=c1/nc(N(C)C)ss1 | > 100 µM | > 100 µM | > 100 µM | > 100 µM | > 100 µM | > 100 µM | > 100 µM | > 100 µM | > 100 µM | > 100 µM | – | – | – | – | – | – | – | – | –
NS(=O)(=O)c1ccc(NC(=O)COC(=O)c2cccc3c(=O)c4ccccc4[nH]c23)cc1 | > 100 µM | 32.7 µM | > 100 µM | > 87 µM | > 100 µM | > 100 µM | > 95.1 µM | > 100 µM | > 100 µM | 43.3 µM | – | – | – | – | – | – | – | – | –
COc1ccc(C(=O)O/N=C2/CCC/C2=C\c2ccccc2)cc1 | > 100 µM | 99.6 µM | > 100 µM | > 100 µM | > 100 µM | > 100 µM | > 100 µM | > 100 µM | > 100 µM | > 100 µM | – | – | – | – | – | – | – | – | –
Cn1ccnc1C[N-]Cc1nccn1C.O=[N+]([O-])[O-].O=[N+]([O-])[O-].[Cu+2] | > 100 µM | > 100 µM | > 100 µM | – | > 100 µM | > 100 µM | > 100 µM | > 100 µM | > 100 µM | > 100 µM | > 100 µM | > 100 µM | 2490 nM | 62.8 µM | > 100 µM | 73.8 µM | > 100 µM | > 100 µM | > 100 µM
COc1ccc2nc3cccc(C(=O)NCCN(C)C)c3nc2c1 | 12.7 µM | 8.8 µM | 8.72 µM | > 100 µM | – | 5.12 µM | > 100 µM | 27.6 µM | 6.16 µM | > 28 µM | – | – | – | – | – | – | – | – | –
CN(C)CCNc1nc(-c2cccs2)cc(-c2cccs2)n1 | – | 28.5 µM | – | 23.6 µM | 18.3 µM | 55.1 µM | 24.4 µM | – | 25.3 µM | – | – | – | – | – | – | – | – | – | –
COc1ccc(C2=NOP(c3ccccc3)(c3ccccc3)(c3ccccc3)C2)cc1 | > 100 µM | > 100 µM | > 100 µM | > 100 µM | > 45.1 µM | > 61.7 µM | > 47.6 µM | 33.5 µM | > 76.5 µM | > 100 µM | – | – | – | – | – | – | – | – | –
C[N+](C)(C)CC1CCCC/C1=N\O (stereo not given) | > 100 µM | > 100 µM | > 100 µM | > 100 µM | > 100 µM | > 100 µM | > 100 µM | > 100 µM | > 100 µM | > 100 µM | – | – | – | – | – | – | – | – | –
C#CCN(C)C(=O)N(CC#C)N=O | > 100 µM | > 100 µM | > 100 µM | > 100 µM | > 100 µM | > 100 µM | > 100 µM | > 100 µM | – | > 100 µM | – | – | – | – | – | – | – | – | –
Nc1nc(N)c(-c2ccccc2)c(CCC(=O)Nc2ccc(Cl)cc2)n1 | > 100 µM | > 100 µM | > 100 µM | > 100 µM | > 100 µM | > 100 µM | > 100 µM | > 100 µM | > 100 µM | > 100 µM | – | – | – | – | – | – | – | – | –
CC(=O)O[C@H]1C=CC23OC(=O)[C@]1(C)[C@H]2[C@H](C(=O)O)C12CC(=O)[C@@](CO)(CC[C@H]13)C2 | > 100 µM | > 100 µM | > 100 µM | > 100 µM | > 100 µM | > 100 µM | > 100 µM | > 100 µM | > 100 µM | > 100 µM | – | – | – | – | – | – | – | – | –
OCC(O)C(OC1OC(CO)C(O)C(O)C1O)c1nn(-c2ccccc2)c2nc3cc(Cl)ccc3nc12 (stereo not given) | > 100 µM | > 100 µM | > 100 µM | > 100 µM | > 100 µM | > 100 µM | – | > 100 µM | > 100 µM | > 100 µM | – | – | – | – | – | – | – | – | –
Cc1ccc(S(=O)OC23CC4CC(CC(C4)C2)C3)cc1 (stereo not given) | > 100 µM | > 100 µM | > 100 µM | > 100 µM | > 100 µM | > 100 µM | > 100 µM | > 100 µM | > 100 µM | > 100 µM | – | – | – | – | – | – | – | – | –
N#Cc1c2c(c(-c3cccs3)n(C3OC(CO)C(O)C(O)C3O)c1=S)CCc1ccccc1-2 (stereo not given) | > 100 µM | > 100 µM | > 100 µM | > 100 µM | > 100 µM | – | – | > 100 µM | > 100 µM | > 100 µM | – | – | – | 37.8 µM and > 100 µM | – | – | 9.27 µM and > 23.7 µM | – | –
